Data from ChEMBL document CHEMBL5338801, “Carbohydrate Strengthens the Immunotherapeutic Effect of Small-Molecule PD-L1 Inhibitors” (J Med Chem, 2023).
Active and inactive are the calls of the source. The calls are words filed in the database; no cut-off is given here.

Experiments:
[1] = Partition coefficient, logD of compound in 1-octanol and phosphate buffer at pH 7.4 incubated for 1 hr under shaking condition by HPLC analysis; assay type: physicochemical; conditions: 1-octanol/phosphate buffer, pH 7.4
[2] = Half life in CD-1 mouse at 5 mg/kg, ip measured upto 24 hrs by UPLC analysis; assay type: ADME, organism-based; conditions: in vivo
[3] = Half life in CD-1 mouse at 5 mg/kg, iv measured upto 24 hrs by UPLC analysis; assay type: ADME, organism-based; conditions: in vivo
[4] = Tmax in CD-1 mouse at 5 mg/kg, ip measured upto 24 hrs by UPLC analysis; assay type: ADME, organism-based; conditions: in vivo
[5] = Tmax in CD-1 mouse at 5 mg/kg, iv measured upto 24 hrs by UPLC analysis; assay type: ADME, organism-based; conditions: in vivo
[6] = Cmax in CD-1 mouse at 5 mg/kg, ip measured upto 24 hrs by UPLC analysis; assay type: ADME, organism-based; parameters: dose 5 mg/kg, time < 24 hrs, route ip; conditions: in vivo
[7] = Cmax in CD-1 mouse at 5 mg/kg, iv measured upto 24 hrs by UPLC analysis; assay type: ADME, organism-based; parameters: dose 5 mg/kg, time < 24 hrs, route iv; conditions: in vivo
[8] = AUClast in CD-1 mouse at 5 mg/kg, ip measured upto 24 hrs by UPLC analysis; assay type: ADME, organism-based; parameters: dose 5 mg/kg, time < 24 hrs, route ip; conditions: in vivo
[9] = AUClast in CD-1 mouse at 5 mg/kg, iv measured upto 24 hrs by UPLC analysis; assay type: ADME, organism-based; parameters: dose 5 mg/kg, time < 24 hrs, route iv; conditions: in vivo
[10] = Observed AUC infinity in CD-1 mouse at 5 mg/kg, ip measured upto 24 hrs by UPLC analysis; assay type: ADME, organism-based; parameters: dose 5 mg/kg, time < 24 hrs, route ip; conditions: in vivo
[11] = Observed AUC infinity in CD-1 mouse at 5 mg/kg, iv measured upto 24 hrs by UPLC analysis; assay type: ADME, organism-based; parameters: dose 5 mg/kg, time < 24 hrs, route iv; conditions: in vivo
[12] = Observed MRT infinity in CD-1 mouse at 5 mg/kg, ip measured upto 24 hrs by UPLC analysis; assay type: ADME, organism-based; conditions: in vivo
[13] = Observed MRT infinity in CD-1 mouse at 5 mg/kg, iv measured upto 24 hrs by UPLC analysis; assay type: ADME, organism-based; conditions: in vivo
[14] = Upregulation of IFN-gamma secretion in human CD4+ve Th cells cocultured with DC cells incubated for 120 hrs by ELISA; assay type: functional
[15] = target: T1, Programmed cell death protein 1/Programmed cell death 1 ligand 1 (Homo sapiens, UniProt Q9NZQ7); experiment: Inhibition of human PD-1/PD-L1 interaction overexpressed in human HEK293T cells by flow cytometry analysis; assay type: cell-based
T1 sequence (Q15116 whole entry): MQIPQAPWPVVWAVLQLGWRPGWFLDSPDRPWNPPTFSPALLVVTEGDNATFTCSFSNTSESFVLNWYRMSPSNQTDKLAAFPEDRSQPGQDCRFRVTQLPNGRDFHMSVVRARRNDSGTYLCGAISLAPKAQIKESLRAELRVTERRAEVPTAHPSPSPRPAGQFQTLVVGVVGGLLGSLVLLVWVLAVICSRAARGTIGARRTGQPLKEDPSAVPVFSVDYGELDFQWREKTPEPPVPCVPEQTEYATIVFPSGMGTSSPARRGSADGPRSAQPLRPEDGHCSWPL
T1 sequence (Q9NZQ7 whole entry): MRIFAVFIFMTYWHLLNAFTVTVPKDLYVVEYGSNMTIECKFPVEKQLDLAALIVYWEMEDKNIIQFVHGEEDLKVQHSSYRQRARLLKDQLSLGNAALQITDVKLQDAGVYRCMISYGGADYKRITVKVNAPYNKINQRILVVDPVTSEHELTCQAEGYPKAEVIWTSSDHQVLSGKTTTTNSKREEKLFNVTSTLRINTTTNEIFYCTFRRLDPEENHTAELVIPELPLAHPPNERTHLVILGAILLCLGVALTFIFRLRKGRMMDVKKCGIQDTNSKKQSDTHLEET

Jurkat = experiment: Cytotoxicity against human Jurkat T cells assessed as cell growth inhibition upto 30 uM incubated for 48 hrs by MTT assay; assay type: toxicity, cell-based
B16-F10 [16] = experiment: Antitumor activity against mouse B16-F10 cells implanted in C57BL/6 mouse assessed as tumor growth inhibition at 100 mg/kg, po qd for 6 days and measured once a day for 7 days relative to control; assay type: functional; conditions: B16-F10, 168 h, time 7 day, read-out: TGI
B16-F10 [17] = experiment: Antitumor activity against mouse B16-F10 cells implanted in C57BL/6 mouse assessed as tumor growth inhibition at 25 mg/kg, ip qd for 6 days and measured once a day for 7 days relative to control; assay type: functional; conditions: B16-F10, 168 h, time 7 day, read-out: TGI
B16-F10 [18] = experiment: Antitumor activity against mouse B16-F10 cells implanted in C57BL/6 mouse assessed as tumor growth inhibition at 5 mg/kg, it qd for 6 days and measured once a day for 7 days relative to control; assay type: functional; conditions: B16-F10, 168 h, time 7 day, read-out: TGI
[19] = Toxicity in C57BL/6 mouse implanted with mouse B16-F10 cells assessed as weight loss at 100 mg/kg, po qd administered for 6 days measured after 7 days relative to control; assay type: organism-based; conditions: in vivo, 168 h, time 7 day
[20] = Toxicity in C57BL/6 mouse implanted with mouse B16-F10 cells assessed as weight loss at 25 mg/kg, ip qd administered for 6 days measured after 7 days relative to control; assay type: organism-based; conditions: in vivo, 168 h, time 7 day
[21] = Toxicity in C57BL/6 mouse implanted with mouse B16-F10 cells assessed as weight loss at 5 mg/kg, it qd administered for 6 days measured after 7 days relative to control; assay type: organism-based; conditions: in vivo, other, 168 h, time 7 day
CT26 [22] = experiment: Antitumor activity against mouse CT26 cells implanted in Balb/c mouse assessed as tumor growth inhibition at 25 mg/kg, ip qd administered for 10 days measured every 2 days for 12 days relative to control; assay type: functional; conditions: CT26, 288 h, time 12 day, read-out: TGI
[23] = Toxicity in BALB/c mouse implanted with mouse CT26 cells assessed as weight loss at 25 mg/kg, ip qd administered for 10 days measured every 2 days for 12 days relative to control; assay type: organism-based; conditions: in vivo, 288 h, time 12 day
CT26 [24] = experiment: Antitumor activity against mouse CT26 cells implanted Balb/c mouse assessed as increase CD4+ cell count at 25 mg/kg, ip qd administered for 10 days measured every 2 days for 12 days (reference value: 13.74 +/- 0.51%); assay type: functional; conditions: time 12 day
CT26 [25] = experiment: Antitumor activity against mouse CT26 cells xenografted Balb/c mouse assessed as increase CD3+ CD8+ T cell count at 25 mg/kg, ip qd administered for 10 days measured every 2 days for 12 days (reference value: 5.77 +/- 0.32%); assay type: functional; conditions: time 12 day
CT26 [26] = experiment: Antitumor activity against mouse CT26 cells xenografted Balb/c mouse assessed as granzyme B+ CD8+ T cell count at 25 mg/kg, ip qd administered for 10 days measured every 2 days for 12 days (reference value: 4.31 +/- 2.35%); assay type: functional; conditions: time 12 day
[27] = target: T1, Programmed cell death protein 1/Programmed cell death 1 ligand 1; experiment: Inhibition of PD-1/His-tagged PD-L1 (unknown origin) protein-protein interaction incubated for 90 mins by AlphaLISA; assay type: protein-complex assay
RKO [28] = experiment: Downregulation of human PD-L1 expressed in RKO cells incubated for 48 hrs; assay type: functional, cell-based
[29] = target: T1, Programmed cell death protein 1/Programmed cell death 1 ligand 1; experiment: Inhibition of PD-1/PD-L1 (unknown origin) interaction incubated for 15 mins by HTRF assay; assay type: protein-complex assay
[30] = Half life in CD-1 mouse at 10 mg/kg, ig measured upto 24 hrs by UPLC analysis; assay type: ADME, organism-based; conditions: in vivo, po
[31] = Tmax in CD-1 mouse at 10 mg/kg, ig measured upto 24 hrs by UPLC analysis; assay type: ADME, organism-based; conditions: in vivo, po
[32] = Cmax in CD-1 mouse at 10 mg/kg, ig measured upto 24 hrs by UPLC analysis; assay type: ADME, organism-based; parameters: dose 10 mg/kg, time < 24 hrs, route ig; conditions: in vivo, po
[33] = AUClast in CD-1 mouse at 10 mg/kg, ig measured upto 24 hrs by UPLC analysis; assay type: ADME, organism-based; parameters: dose 10 mg/kg, time < 24 hrs, route ig; conditions: in vivo, po
[34] = Observed clearance in CD-1 mouse at 5 mg/kg, iv measured upto 24 hrs by UPLC analysis; assay type: ADME, organism-based; conditions: in vivo
[35] = Observed MRT infinity in CD-1 mouse at 10 mg/kg, ig measured upto 24 hrs by UPLC analysis; assay type: ADME, organism-based; conditions: in vivo, po
[36] = Volume of distribution at steady state in CD-1 mouse at 5 mg/kg, iv measured upto 24 hrs by UPLC analysis; assay type: ADME, organism-based; conditions: in vivo, read-out: Vdss
[37] = target: Programmed cell death 1 ligand 1 (Homo sapiens) (UniProt Q9NZQ7); experiment: Induction of human PD-L1 degradation expressed in MC38 cells at 1 to 10 uM cocultured for 72 hrs by Western blotting analysis; assay type: cell-based; conditions: dose 1-10 µM
Chain of Programmed cell death 1 ligand 1 (Homo sapiens) (Q9NZQ7 whole entry): as above

[38] = target: Programmed cell death 1 ligand 1 (Homo sapiens) (UniProt Q9NZQ7); experiment: Inhibition of human PD-L1 overexpressed in RKO cells assessed as reduction in membrane activity cocultured for 48 hrs by flow cytometry analysis; assay type: cell-based
CT26 [39] = experiment: Downregulation of mouse PD-L1 expressed in CT26 cells incubated for 48 hrs; assay type: functional, cell-based
CT26 [40] = experiment: Downregulation of BET1 homologue in Balb/c mouse tumor implanted with mouse CT26 cells by LC/MS analysis; assay type: functional, cell-based
CT26 [41] = experiment: Downregulation of immediate early response 3-interacting protein 1 in Balb/c mouse tumor implanted with mouse CT26 cells tumor by LC/MS analysis; assay type: functional, cell-based
CT26 [42] = experiment: Downregulation of STING ER exit protein in Balb/c mouse tumor implanted with mouse CT26 cells by LC/MS analysis; assay type: functional, cell-based
CT26 [43] = experiment: Downregulation of mitogen-activated protein kinase 15 in mouse CT26 cells implanted in Balb/c mouse tumor by LC/MS analysis; assay type: functional, cell-based
RKO [44] = experiment: Cytotoxicity against human RKO cells over expressing human PD-L1 at 50 uM; assay type: toxicity, cell-based

logD at 1 h [1] | half-life [3] | AUC(0-t) at 24 h [9] | MRT inf [13] | Structure (SMILES) | fold change (FC) [14] | IC50 [15] | Activity (Jurkat) | inhibition in vivo at 100 mg/kg (B16-F10 [16]) | inhibition in vivo at 25 mg/kg (B16-F10 [17]) | inhibition in vivo at 5 mg/kg (B16-F10 [18]) | Activity [19] | Activity [20] | Activity [21] | inhibition in vivo at 25 mg/kg (CT26 [22]) | Activity [23] | Activity (CT26 [24]) | Activity (CT26 [25]) | Activity (CT26 [26]) | other results
1.78 | 227 min | 1090 ng·h/mL | 1.5 h | COc1cc(OCc2cccc(-c3ccccc3)c2C)cc(OC)c1CNCCO[C@H]1O[C@H](CO)[C@@H](O)[C@H](O)[C@@H]1O | 6.72 | 60.8 nM | Non-Toxic | 41.1% | 41.1% | 41.1% | Non-Toxic | Non-Toxic | Non-Toxic | 67.2% | Non-Toxic | 18.4% | 8.67% | 7.19% | half-life [2]: 350 min; Tmax [4]: 34.8 min; Tmax [5]: 34.8 min; Cmax [6]: 1630 ng/mL; Cmax [7]: 928 ng/mL; AUC(0-t) at 24 h [8]: 2920 ng·h/mL; AUC(0-inf) [10]: 2990 ng·h/mL; AUC ([11]; mouse, 24 h): 1110 ng·h/mL; MRT inf [12]: 1.9 h
 |  |  |  | Cc1c(COc2cc(OCc3cncc(C#N)c3)c(CN(CCCN(C)C)CCS(=O)(=O)O)cc2Cl)cccc1-c1ccc2c(c1)OCCO2 |  |  |  |  |  |  |  |  |  |  |  |  |  |  | IC50 [27]: 23.5 nM
2.09 | 382 min | 2160 ng·h/mL | 3.58 h | COc1nc(OCc2cccc(-c3ccccc3)c2C)ccc1CNCCO[C@@H]1O[C@H](CO)[C@@H](O)[C@H](O)[C@H]1NC(C)=O | 2.57 | 49.4 nM | Non-Toxic | 41.1% | 41.1% | 41.1% | Non-Toxic | Non-Toxic | Non-Toxic | 77.3% | Non-Toxic | 20.53% | 11.47% | 5.06% | Activity (RKO [28]): Active; IC50 [29]: 29.2 nM; half-life [30]: 421 min; Tmax [31]: 30 min; Cmax [32]: 31.7 ng/mL; AUC(0-t) at 24 h [33]: 337 ng·h/mL; AUC(0-inf) ([11]; CD-1, mouse): 2230 ng·h/mL; clearance [34]: 38.6 mL/min/kg; MRT inf [35]: 10.2 h; Vd [36]: 6.88 L/kg; Activity [37]: Active; inhibition [38]: Active; Activity (CT26 [39]): Active; Activity (CT26 [40]): Active; Activity (CT26 [41]): Active; Activity (CT26 [42]): Active; Activity (CT26 [43]): Active; Activity (RKO [44]): Non-Toxic
